Common to all, as to assay type: functional
Holding throughout (settings): read-out: IZ

One experiment deals with Staphylococcus aureus. The experiment is described as follows: Antibiotic activity against Staphylococcus aureus at 200 ug/disk after 24 hrs by disk diffusion method. A general note: Agar diffusion results depend on both activity and mobility in agar.
Another experiment has as its system Candida albicans. In words: Antifungal activity against Candida albicans at 200 ug/disk after 24 hrs by disk diffusion method.
The next experiment has as its system Escherichia coli. The experiment is described as follows: Antibiotic activity against Escherichia coli at 200 ug/disk after 24 hrs by disk diffusion method.

The structures appear in SMILES notation.

For `CO[C@@H]1O[C@@H](OC)c2c1ccc([C@@]1(C)CCCC(C)(C)C1)c2[C@@H](C)C(=O)O` [MEMBRANOLIDE C], the zone of inhibition at 200 µg/disc with Staphylococcus aureus is 0 mm; in the experiment with Candida albicans it was 4 mm; with Escherichia coli it was 8 mm.

As for `CO[C@H]1O[C@@H](OC)c2c1ccc([C@@]1(C)CCCC(C)(C)C1)c2[C@@H](C)C(=O)O` [MEMBRANOLIDE D], the values for the zone of inhibition at 200 µg/disc in the experiment with Staphylococcus aureus, with Candida albicans and in the experiment on Escherichia coli were 7 mm, 9 mm and 6 mm, respectively.
